Reference: patent US9926297B2, “Bicyclic AZA compounds as muscarinic M1 receptor and/or M4 receptor agonists” (Heptares Therapeutics Limited, priority 2014, dated 2018)
Like-named read-outs stand apart in the source and are kept apart here.

Key:
[1] = biological target: T1, human muscarinic M2 receptor (Homo sapiens, UniProt P08172); assay: Alphascreen Surefire phospho-ERK1/2 functional assay, M2; conditions: for Emax: CHO
T1 sequence (P08172 1-466): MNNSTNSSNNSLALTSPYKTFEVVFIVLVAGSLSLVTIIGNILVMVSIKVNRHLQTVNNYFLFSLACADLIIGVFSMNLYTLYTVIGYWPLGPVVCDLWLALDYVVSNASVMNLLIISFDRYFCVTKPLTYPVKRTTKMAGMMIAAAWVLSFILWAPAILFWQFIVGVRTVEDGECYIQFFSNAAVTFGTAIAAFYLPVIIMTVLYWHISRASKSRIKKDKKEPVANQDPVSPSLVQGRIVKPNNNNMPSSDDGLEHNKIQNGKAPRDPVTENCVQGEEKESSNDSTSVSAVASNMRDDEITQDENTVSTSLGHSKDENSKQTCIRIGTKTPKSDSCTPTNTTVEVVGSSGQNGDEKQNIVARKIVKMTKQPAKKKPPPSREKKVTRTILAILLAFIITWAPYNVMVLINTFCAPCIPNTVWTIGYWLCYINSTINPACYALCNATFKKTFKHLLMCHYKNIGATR

[2] = biological target: T2, human muscarinic M1 receptor (Homo sapiens, UniProt P11229); assay: Alphascreen Surefire phospho-ERK1/2 functional assay, M1; format: cell-based; conditions: for EC50: phospho-ERK1/2, * = variable results; for Emax: CHO
T2 sequence (P11229 1-460): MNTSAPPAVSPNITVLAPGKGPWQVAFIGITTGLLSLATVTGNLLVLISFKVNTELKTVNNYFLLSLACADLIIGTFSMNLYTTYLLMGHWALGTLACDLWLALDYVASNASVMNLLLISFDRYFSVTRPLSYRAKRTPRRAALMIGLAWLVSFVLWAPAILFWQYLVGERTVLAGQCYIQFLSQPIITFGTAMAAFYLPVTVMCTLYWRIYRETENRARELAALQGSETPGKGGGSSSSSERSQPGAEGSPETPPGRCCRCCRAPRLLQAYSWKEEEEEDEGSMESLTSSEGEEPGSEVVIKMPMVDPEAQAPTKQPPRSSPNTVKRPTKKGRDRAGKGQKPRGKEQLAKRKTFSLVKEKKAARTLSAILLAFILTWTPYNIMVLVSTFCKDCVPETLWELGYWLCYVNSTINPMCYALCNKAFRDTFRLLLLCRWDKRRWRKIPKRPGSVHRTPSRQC

[3] = biological target: human muscarinic M3 receptor (Homo sapiens, UniProt P20309); assay: Alphascreen Surefire phospho-ERK1/2 functional assay, M3; conditions: for Emax: CHO; for EC50: pEC50 M3, CHO cells stably expressing human M3, phospho-ERK1/2, * = variable results
Sequence of human muscarinic M3 receptor (P20309 whole entry): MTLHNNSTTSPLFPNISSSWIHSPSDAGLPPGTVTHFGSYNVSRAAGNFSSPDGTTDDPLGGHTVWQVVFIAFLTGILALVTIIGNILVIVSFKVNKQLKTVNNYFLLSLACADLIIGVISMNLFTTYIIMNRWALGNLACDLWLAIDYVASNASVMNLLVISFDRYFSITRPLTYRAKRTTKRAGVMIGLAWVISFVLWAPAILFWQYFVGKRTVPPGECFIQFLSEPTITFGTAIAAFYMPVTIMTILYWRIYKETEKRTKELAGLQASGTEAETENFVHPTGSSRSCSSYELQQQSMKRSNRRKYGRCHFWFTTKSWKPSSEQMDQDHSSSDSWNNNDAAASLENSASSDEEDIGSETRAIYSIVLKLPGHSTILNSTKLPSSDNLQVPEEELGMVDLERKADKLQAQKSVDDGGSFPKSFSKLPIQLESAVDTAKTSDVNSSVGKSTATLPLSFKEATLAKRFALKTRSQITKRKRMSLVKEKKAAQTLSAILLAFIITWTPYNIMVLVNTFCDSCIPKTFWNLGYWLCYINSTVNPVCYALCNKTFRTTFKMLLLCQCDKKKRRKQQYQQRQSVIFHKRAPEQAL

[4] = biological target: T3, human muscarinic M4 receptor (Homo sapiens, UniProt P08173); assay: Alphascreen Surefire phospho-ERK1/2 functional assay, M4; format: cell-based; conditions: for EC50: phospho-ERK1/2, * = variable results; for Emax: CHO
T3 construct: expressed in transfected cells
T3 sequence (P08173 1-479): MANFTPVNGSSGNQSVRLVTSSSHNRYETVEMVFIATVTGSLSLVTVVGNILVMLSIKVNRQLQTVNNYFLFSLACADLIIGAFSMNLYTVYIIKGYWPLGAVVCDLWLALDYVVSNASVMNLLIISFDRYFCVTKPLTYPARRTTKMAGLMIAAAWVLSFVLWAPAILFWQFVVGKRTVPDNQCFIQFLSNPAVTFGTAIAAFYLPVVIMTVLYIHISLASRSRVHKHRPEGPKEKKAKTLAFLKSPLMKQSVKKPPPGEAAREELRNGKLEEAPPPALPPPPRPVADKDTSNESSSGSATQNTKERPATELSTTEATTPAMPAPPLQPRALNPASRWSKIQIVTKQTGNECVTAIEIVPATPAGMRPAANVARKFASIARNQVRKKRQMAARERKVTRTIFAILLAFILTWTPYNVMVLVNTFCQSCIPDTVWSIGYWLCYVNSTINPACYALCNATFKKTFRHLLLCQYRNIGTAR

[5] = read-out: % Emax cf. ACh, M2, CHO cells stably expressing human M2, relative to ACh
[6] = CHO cells stably expressing human M1, read-out: pEC50 M1 (converted)
[7] = read-out: % Emax cf. ACh, M1, CHO cells stably expressing human M1, relative to ACh
[8] = read-out: % Emax cf. ACh, M3, CHO cells stably expressing human M3, relative to ACh
[9] = CHO cells stably expressing human M4, read-out: pEC50 M4 (converted)
[10] = read-out: % Emax cf. ACh, M4, CHO cells stably expressing human M4, relative to ACh

Row | EC50 [1] [nM] | Emax [1, 5] [%] | EC50 [2, 6] [nM] | Emax [2, 7] [%] | Emax [3, 8] [%] | EC50 [3] [nM] | EC50 [4, 9] [nM] | Emax [4, 10] [%] | % Emax cf. ACh, M1 ([2]; CHO cells stably expressing human M1, relative to ACh) [%] | % Emax cf. ACh, M4 ([4]; CHO cells stably expressing human M4, relative to ACh) [%] | SMILES | Emax ([1]; read-out: % Emax cf. ACh, M2) [%] | Emax ([2]; read-out: % Emax cf. ACh, M1) [%] | EC50 ([2]; pEC50 M1, CHO cells stably expressing human M1) [nM] | Emax ([3]; read-out: % Emax cf. ACh, M3) [%] | Emax ([4]; read-out: % Emax cf. ACh, M4) [%] | EC50 ([4]; pEC50 M4, CHO cells stably expressing human M4) [nM]
1 | > 20000 | 9 | 398 | 72 | 9 | > 20000 | 15.8 | 111 | – | – | CNC(=O)N1CCC[C@H]1C1CCN(C2CC3(CCN(C(=O)OC)C3)C2)CC1 (single isomer, unassigned) [2-15 Isomer 2] | – | – | – | – | – | –
2 | > 20000 | 2 | 3160 | 50 | 5 | > 20000 | 31.6 | 82 | – | – | CCOC(=O)N1CCC2(CC(N3CCC(N4CC(F)(F)C[C@@H]4C(=O)N(C)OC)CC3)C2)C1 (single isomer, unassigned) [2-92 Isomer 2] | – | – | – | – | – | –
3 | > 20000 | 18 | 39.8 | 96 | 8 | > 20000 | 1.26 | 115 | – | – | CCOC(=O)N1CCC2(CC(N3CCC([C@@H]4CCCN4C(=O)CCN)CC3)C2)C1 (single isomer, unassigned) [2-66 Isomer 2] | – | – | – | – | – | –
4 | > 20000 | 13 | 794 | 55 | 2 | > 20000 | 31.6 | 93 | – | – | CCOC(=O)N1CCC2(CC(N3CCC(c4c(C)cnn4C)CC3)C2)C1 (single isomer, unassigned) [1-58 Isomer 2, ethyl 2-[4-(1,4-dimethyl-1H-pyrazol-5-yl)piperidin-1-yl]-6-azaspiro[3.4]octane-6-carboxylate] | – | – | – | – | – | –
5 | > 20000 | 56 | 79.4 | 113 | 16 | > 20000 | 6.31 | 126 | – | – | CCOC(=O)N1CCC2(CC(N3CCC(n4cccc4)CC3)C2)C1 (single isomer, unassigned) [1-32 Isomer 2, ethyl 2-[4-(1H-pyrrol-1-yl)piperidin-1-yl]-6-azaspiro[3.4]octane-6-carboxylate] | – | – | – | – | – | –
6 | > 20000 | 65 | > 20000 | 20 | 11 | > 20000 | 15.8 | 80 | – | – | COc1ncccc1C1CCN(C2CC3(CCN(C(=O)OCCF)C3)C2)CC1 (single isomer, unassigned) [3-5 Isomer 2, 2-fluoroethyl 2-[4-(2-methoxypyridin-3-yl)piperidin-1-yl]-6-azaspiro[3.4]octane-6-carboxylate] | – | – | – | – | – | –
7 | > 20000 | 7 | 126 | 93 | 7 | > 20000 | 3.16 | 108 | – | – | CCOC(=O)N1CCC2(CC(N3CCC([C@@H]4CCCN4C(=O)NCCOC)CC3)C2)C1 (single isomer, unassigned) [2-31 Isomer 2] | – | – | – | – | – | –
8 | > 20000 | 2 | 251 | 34 | 5 | > 20000 | 3.98 | 110 | – | – | CCOC(=O)N1CCC2(CC(N3CCC(c4cc(C)cnc4OC)CC3)C2)C1 (single isomer, unassigned) [3-12 Isomer 2, ethyl 2-[4-(2-methoxy-5-methylpyridin-3-yl)piperidin-1-yl]-6-azaspiro[3.4]octane-6-carboxylate] | – | – | – | – | – | –

Continued, compound first:

Row | SMILES | EC50 [1] [nM] | Emax [1, 5] [%] | EC50 [2, 6] [nM] | Emax [2, 7] [%] | Emax [3, 8] [%] | EC50 [3] [nM] | EC50 [4, 9] [nM] | Emax [4, 10] [%] | % Emax cf. ACh, M1 ([2]; CHO cells stably expressing human M1, relative to ACh) [%] | % Emax cf. ACh, M4 ([4]; CHO cells stably expressing human M4, relative to ACh) [%] | Emax ([1]; read-out: % Emax cf. ACh, M2) [%] | Emax ([2]; read-out: % Emax cf. ACh, M1) [%] | EC50 ([2]; pEC50 M1, CHO cells stably expressing human M1) [nM] | Emax ([3]; read-out: % Emax cf. ACh, M3) [%] | Emax ([4]; read-out: % Emax cf. ACh, M4) [%] | EC50 ([4]; pEC50 M4, CHO cells stably expressing human M4) [nM]
9 | CCOC(=O)N1CCC2(CC(N3CCC(N4CC(F)(F)C[C@@H]4C(=O)NOC)CC3)C2)C1 (single isomer, unassigned) [2-91 Isomer 2] | > 20000 | 12 | 501 | 40 | 10 | > 20000 | 79.4 | 67 | – | – | – | – | – | – | – | –
10 | CCOC(=O)N1CCC2(CC(N3CCC(C4CCCN4C(=O)CNC)CC3)C2)C1 (single isomer, unassigned) [2-23 Isomer 2, ethyl 2-{4-[1-(N-methylglycyl)pyrrolidin-2-yl]piperidin-1-yl}-6-azaspiro[3.4]octane-6-carboxylate] | > 20000 | 3 | 1260 | 65 | 9 | > 20000 | 50.1 | 104 | – | – | – | – | – | – | – | –
11 | CCOC(=O)N1CCC2(CC(N3CCC(N4CC(F)(F)C[C@@H]4C(=O)N(C)C)CC3)C2)C1 (single isomer, unassigned) [2-89 Isomer 2] | > 20000 | 68 | 6310 | 37 | 8 | > 20000 | 200 | 102 | – | – | – | – | – | – | – | –
12 | CCOC(=O)N1CCC2(CC(N3CCC([C@@H]4CCCN4C(=O)NOC)CC3)C2)C1 (single isomer, unassigned) [2-33 Isomer 1] | > 20000 | 8 | 398 | – | 3 | > 20000 | 7.94 | – | 86 | 109 | – | – | – | – | – | –
13 | CCOC(=O)N1CCC2(CC(N3CCC(N4CC(F)(F)C[C@@H]4C(N)=O)CC3)C2)C1 (single isomer, unassigned) [2-90 Isomer 2] | > 20000 | 4 | 158 | 54 | 1 | > 20000 | 12.6 | 53 | – | – | – | – | – | – | – | –
14 | CCOC(=O)N1CCC2(CC(N3CCC(C4CCCN4)CC3)C2)C1 (single isomer, unassigned) [2-1 Isomer 2, ethyl 2-[4-(pyrrolidin-2-yl)piperidin-1-yl]-6-azaspiro[3.4]octane-6-carboxylate] | > 20000 | – | > 20000 | 6 | – | > 20000 | 316 | 63 | – | – | – | – | – | – | – | –
15 | CCOC(=O)N1CCC2(CC(N3CCC(N4CSC[C@@H]4C(=O)OC)CC3)C2)C1 (single isomer, unassigned) [2-97 Isomer 2] | > 20000 | 3 | > 20000 | 5 | 3 | > 20000 | 39.8 | 37 | – | – | – | – | – | – | – | –
16 | CCOC(=O)N1CCC2(CC(N3CCC([C@@H]4CCCN4C(=O)NC4CC4)CC3)C2)C1 (single isomer, unassigned) [2-29 Isomer 2] | > 20000 | 5 | 501 | 60 | 13 | > 20000 | 15.8 | 110 | – | – | – | – | – | – | – | –
17 | CCOC(=O)N1CCC2(CC(N3CCC(OC)(c4ncc[nH]4)CC3)C2)C1 (single isomer, unassigned) [1-38 Isomer 2, ethyl 2-[4-(1H-imidazol-2-yl)-4-methoxypiperidin-1-yl]-6-azaspiro[3.4]octane-6-carboxylate] | > 20000 | – | – | – | – | > 20000 | – | – | – | – | 14 | 31 | 100 | 19 | 98 | 794
